The record followed here is patent publication US20240360175A1, “PEPTIDE DERIVATIVES AND RELATED USES AS OREXIN AGONISTS” (Centessa Pharmaceuticals (UK) Limited, priority 2021, published 2024).

SMILES strings stand for the structures. Numbered stars: 1 amine (or outer) side, 2 acyl side, 3 side chain; on linkers, the order of the positions; unused ones are H or OH. Square brackets hold non-standard residues; d marks the D form. Peptide text beside a SMILES is read from it. * marks the point of attachment. Malonyl(2,2-Me2,histaminyl) = CC(C)(C(=O)NCCc1cnc[nH]1)C(=O)*; Gly(N-CH2CH2(4-MeOPh)) = COc1ccc(CCNCC(=O)O)cc1; X7 = O=C([C@@H](N[*:1])c1cccc2ccccc12)[*:2]; hArg(Et2) = CCN=C(NCC)NCCCC[C@H](N)C(=O)O; PEG8 = NCCOCCOCCOCCOCCOCCOCCOCCOCCC(=O)O; Phe(3-Br) = N[C@@H](Cc1cccc(Br)c1)C(=O)O; X1 = O=C(CN(CCc1ccc2ccccc2c1)[*:1])[*:2]; X2 = O=C([C@@H](N[*:1])c1cccc(O)c1)[*:2]; X6 = O=C(CN(CCc1cccc2ccccc12)[*:1])[*:2]; Phg(4-OMe) = COc1ccc([C@H](N)C(=O)O)cc1; Gly(NCH2CH2Ph) = O=C(O)CNCCc1ccccc1; Hyp = O=C(O)[C@@H]1C[C@@H](O)CN1; Aoc(2) = CCCCCC[C@H](N)C(=O)O; Phg = N[C@H](C(=O)O)c1ccccc1; Cbz = O=C(OCc1ccccc1)*

Assay [1] deals with T1, human orexin type 2 receptor (hOX2R) (Homo sapiens, UniProt O43614).
T1 construct: expressed in transfected cells
T1 sequence (O43614 1-444): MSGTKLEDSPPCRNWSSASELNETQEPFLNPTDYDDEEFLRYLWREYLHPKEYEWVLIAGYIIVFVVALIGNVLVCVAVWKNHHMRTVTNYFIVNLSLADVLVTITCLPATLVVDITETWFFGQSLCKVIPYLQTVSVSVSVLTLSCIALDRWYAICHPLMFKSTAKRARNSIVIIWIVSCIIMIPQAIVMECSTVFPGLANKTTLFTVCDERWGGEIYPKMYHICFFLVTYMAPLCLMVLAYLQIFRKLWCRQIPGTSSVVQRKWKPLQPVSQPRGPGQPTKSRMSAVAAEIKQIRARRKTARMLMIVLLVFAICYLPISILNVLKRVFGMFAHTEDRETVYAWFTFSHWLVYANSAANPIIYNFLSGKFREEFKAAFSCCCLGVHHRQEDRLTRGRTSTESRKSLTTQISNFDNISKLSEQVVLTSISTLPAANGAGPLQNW
Put plainly: Measurement of orexin type 2 receptor agonist activity (FLIPR TETRA intracellular Ca2+ fluorescence). The following applies: CHO cells expressing hOX2R; agonist activity, Ca2+ fluorescence; read-out: hOX2 pEC50 (converted). The assay is classed as cell-based. On the procedure:
(§1) Stable cell line generation. Obtainment of cells stably expressing either human orexin type 2 or human orexin type 1 receptor: to obtain a stable cell line the Orexin receptor cDNA was inserted into pcDNA3.1(+) plasmid vector and clones identified by G418 drug resistance selection. […] A single clone for OX2R—CHO and OX1R—CHO were grown in bulk and frozen to generate a cell bank for routine screening.
(§2) Measurement of orexin type 2 receptor agonist activity. Chinese hamster ovary (CHO) cells expressing human orexin type 2 receptor (hOX2R) seeded in each well of 384 well black clear bottom plates (BD Flacon) at 10,000 cells per well and cultured for 24 h in an Ham's F12 (Gibco) medium containing 10% fetal calf serum (Sigma Aldrich) under the conditions of 37° C., 5% CO2. After removal of the medium, 50 μL of assay buffer 1 (0.1% bovine serum albumin (Sigma Aldrich), 20 mM HEPES (Molecular Dimensions), […] probenecid (Sigma Aldrich), 1× Calcium 5 dye (Molecular Devices) in Hank's balanced salt solution (Invitrogen)) was added, and the cells were incubated for 60 min under the conditions of 37° C., 5% CO2. A test peptide was dissolved in dimethyl sulfoxide (Sigma Aldrich) to 1 mM, and then diluted with assay buffer 2 (20 mM HEPES, Hank's balanced salt solution, 0.1% bovine serum albumin). For the reaction, a test peptide solution (10 μl) was added using Fluorescent Imaging Plate Reader TETRA (FLIPR TETRA: manufactured by Molecular Devices), a fluorescence value (excitation wavelength 488 nm, measurement wavelength 570 nm) of each well was measured every one second for 2 min, and the agonist activity was determined using the area of the fluorescence value as an indicator of intracellular Ca^2+ concentration. The agonist activity of the test peptide was calculated assuming that the fluorescence value of the well added with only the dilution buffer was 0% and the fluorescence value of the well added with 10 nM human orexin A (Tocris) buffer was 100%. As used herein, Emax indicates the value at 1 μM concentration when orexin A is converted to a full agonist (maximum value of agonist activity: 100%).

The target in assay [2] is T2, human orexin type 1 receptor (hOX1R) (Homo sapiens, UniProt O43613).
T2 construct: expressed in transfected cells
T2 sequence (O43613 1-425): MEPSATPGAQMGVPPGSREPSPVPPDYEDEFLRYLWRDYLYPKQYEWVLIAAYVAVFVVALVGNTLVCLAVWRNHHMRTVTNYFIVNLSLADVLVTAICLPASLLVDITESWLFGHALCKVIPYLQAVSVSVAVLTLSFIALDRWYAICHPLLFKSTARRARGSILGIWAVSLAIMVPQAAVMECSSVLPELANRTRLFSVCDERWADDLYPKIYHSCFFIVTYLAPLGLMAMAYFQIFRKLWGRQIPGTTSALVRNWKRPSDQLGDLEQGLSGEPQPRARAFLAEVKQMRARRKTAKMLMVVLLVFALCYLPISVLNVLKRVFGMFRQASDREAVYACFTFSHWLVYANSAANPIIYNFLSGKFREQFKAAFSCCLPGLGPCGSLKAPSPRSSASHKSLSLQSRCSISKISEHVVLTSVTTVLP
Put plainly: Measurement of orexin type 1 receptor agonist activity (FLIPR TETRA intracellular Ca2+ fluorescence). In kind it is cell-based. The following applies: CHO cells expressing hOX1R; agonist activity, Ca2+ fluorescence; read-out: hOX1 pEC50 (converted). On the procedure:
as §1
as §2, with “type 1” for “type 2”, “receptor (hOX1R) were” for “receptor (hOX2R)”

As to `CCCCCC[C@H](NC(=O)[C@@H](NC(=O)[C@H](CC(C)C)NC(=O)[C@@H](NC(=O)CNC(=O)[C@@H](NC(=O)[C@H](C)NC(=O)[C@@H]1C[C@@H](O)CN1C(=O)[C@H](CC(N)=O)NC(=O)CN(CCc1ccccc1)C(=O)[C@H](CCCNC(=N)N)NC(=O)CCOCCOCCOCCOCCOCCOCCOCCOCCN)c1ccccc1)[C@@H](C)CC)[C@@H](C)O)C(N)=O` [Peptide 8] (H-[PEG8]R[Gly(NCH2CH2Ph)]N[Hyp]A[Phg]GILT[Aoc(2)]-NH2), the EC50 in assay [1] was < 0.1 nM; in assay [2] it was > 10 nM.
For `CCCCCC[C@H](NC(=O)[C@@H](NC(=O)[C@H](CC(C)C)NC(=O)[C@@H](NC(=O)CNC(=O)[C@@H](NC(=O)[C@H](C)NC(=O)[C@@H]1C[C@@H](O)CN1C(=O)[C@H](CC(N)=O)NC(=O)CN(CCc1ccccc1)C(=O)[C@@H](N)CCCCNC(=NCC)NCC)c1cccc2ccccc12)[C@@H](C)CC)[C@@H](C)O)C(N)=O` [Peptide 9] (H-[hArg(Et2)][Gly(NCH2CH2Ph)]N[Hyp]A[X7]GILT[Aoc(2)]-NH2; N-terminus assumed), the EC50 in assay [1] is < 0.1 nM; in assay [2] it was > 10 nM.
Turning to `CCCCCC[C@H](NC(=O)[C@@H](NC(=O)[C@H](CC(C)C)NC(=O)[C@@H](NC(=O)CNC(=O)[C@@H](NC(=O)[C@H](C)NC(=O)[C@@H]1C[C@@H](O)CN1C(=O)[C@H](CC(N)=O)NC(=O)CN(CCc1ccccc1)C(=O)[C@H](CCCCNC(=NCC)NCC)NC(=O)OCc1ccccc1)c1ccccc1)[C@@H](C)CC)[C@@H](C)O)C(N)=O` [Peptide 10] (Cbz-[hArg(Et2)][Gly(NCH2CH2Ph)]N[Hyp]A[Phg]GILT[Aoc(2)]-NH2), the EC50 in assay [1] is < 0.1 nM; in assay [2], > 10 nM.
In the same order, the values of `CCCCCC[C@H](NC(=O)[C@@H](NC(=O)[C@H](CC(C)C)NC(=O)[C@@H](NC(=O)CNC(=O)[C@@H](NC(=O)[C@H](C)NC(=O)[C@H](Cc1c[nH]cn1)NC(=O)[C@H](CC(N)=O)NC(=O)CN(CCc1ccc2ccccc2c1)C(=O)[C@@H](N)CCCCNC(=NCC)NCC)c1ccccc1)[C@@H](C)CC)[C@@H](C)O)C(N)=O` [Peptide 11] (H-[hArg(Et2)][X1]NHA[Phg]GILT[Aoc(2)]-NH2; N-terminus assumed) are < 0.1 nM and 1 to 10 nM.
Turning to `CCCCCC[C@H](NC(=O)[C@@H](NC(=O)[C@H](CC(C)C)NC(=O)[C@@H](NC(=O)CNC(=O)[C@@H](NC(=O)[C@H](C)NC(=O)[C@H](Cc1c[nH]cn1)NC(=O)[C@H](CC(N)=O)NC(=O)CN(CCc1ccccc1)C(=O)[C@@H](N)CCCCN/C(=N/CC)NCC)c1ccc(OC)cc1)[C@@H](C)CC)[C@@H](C)O)C(N)=O` [Peptide 12] (H-[hArg(Et2)][Gly(NCH2CH2Ph)]NHA[Phg(4-OMe)]GILT[Aoc(2)]-NH2), the values for the EC50 in assay [1] and in assay [2] were < 0.1 nM and > 10 nM, respectively.
Consider `CC[C@H](C)[C@H](NC(=O)CNC(=O)[C@@H](NC(=O)[C@H](C)NC(=O)[C@@H]1C[C@@H](O)CN1C(=O)[C@H](CC(N)=O)NC(=O)CN(CCc1ccc2ccccc2c1)C(=O)[C@@H](N)CCCNC(=N)N)c1ccccc1)C(=O)N[C@@H](CC(C)C)C(=O)N[C@H](C(=O)N[C@@H](Cc1cccc(Br)c1)C(N)=O)[C@@H](C)O` [Peptide 13] (H-R[X1]N[Hyp]A[Phg]GILT[Phe(3-Br)]-NH2), for which the EC50 in assay [1] was < 0.1 nM; in assay [2], 1 to 10 nM.
Turning to `CCCCCC[C@H](NC(=O)[C@@H](NC(=O)[C@H](CC(C)C)NC(=O)[C@@H](NC(=O)CNC(=O)[C@@H](NC(=O)[C@H](C)NC(=O)[C@@H]1C[C@@H](O)CN1C(=O)[C@H](CC(N)=O)NC(=O)CN(CCc1ccccc1)C(=O)[C@@H](N)CCCNC(=N)N)c1ccccc1)[C@@H](C)CC)[C@@H](C)O)C(N)=O` [Peptide 14] (H-R[Gly(NCH2CH2Ph)]N[Hyp]A[Phg]GILT[Aoc(2)]-NH2; N-terminus assumed), the figures for the EC50 in assay [1] and in assay [2] were < 0.1 nM and > 10 nM, respectively.
As to `CCCCCC[C@H](NC(=O)[C@@H](NC(=O)[C@H](CC(C)C)NC(=O)[C@@H](NC(=O)CNC(=O)[C@@H](NC(=O)[C@H](C)NC(=O)[C@@H]1C[C@@H](O)CN1C(=O)[C@H](CC(N)=O)NC(=O)CN(CCc1ccccc1)C(=O)[C@H](CCCCN/C(=N/CC)NCC)NC(=O)C(C)(C)C(=O)NCCc1cnc[nH]1)c1ccccc1)[C@@H](C)CC)[C@@H](C)O)C(N)=O` [Peptide 15] ({Malonyl(2,2-Me2,histaminyl)}-[hArg(Et2)][Gly(NCH2CH2Ph)]N[Hyp]A[Phg]GILT[Aoc(2)]-NH2), the EC50 is < 0.1 nM in assay [1] and > 10 nM in assay [2].
Turning to `CC[C@H](C)[C@H](NC(=O)CNC(=O)[C@@H](NC(=O)[C@H](C)NC(=O)[C@@H]1C[C@@H](O)CN1C(=O)[C@H](CC(N)=O)NC(=O)CN(CCc1cccc2ccccc12)C(=O)[C@@H](N)CCCNC(=N)N)c1ccccc1)C(=O)N[C@@H](CC(C)C)C(=O)N[C@H](C(=O)N[C@@H](Cc1cccc(Br)c1)C(N)=O)[C@@H](C)O` [Peptide 16] (H-R[X6]N[Hyp]A[Phg]GILT[Phe(3-Br)]-NH2), the EC50 was < 0.1 nM in assay [1] and 1 to 10 nM in assay [2].
In the case of `CCCCCC[C@H](NC(=O)[C@@H](NC(=O)[C@H](CC(C)C)NC(=O)[C@@H](NC(=O)CNC(=O)[C@@H](NC(=O)[C@H](C)NC(=O)[C@H](Cc1c[nH]cn1)NC(=O)[C@H](CC(N)=O)NC(=O)CN(CCc1ccccc1)C(=O)[C@@H](N)CCCCN/C(=N/CC)NCC)c1cccc(O)c1)[C@@H](C)CC)[C@@H](C)O)C(N)=O` [Peptide 17] (H-[hArg(Et2)][Gly(NCH2CH2Ph)]NHA[X2]GILT[Aoc(2)]-NH2), the results for the EC50 in assay [1] and in assay [2] were < 0.1 nM and > 10 nM, respectively.
Consider `CCCCCC[C@H](NC(=O)[C@@H](NC(=O)[C@H](CC(C)C)NC(=O)[C@@H](NC(=O)CNC(=O)[C@@H](NC(=O)[C@H](C)NC(=O)[C@H](Cc1c[nH]cn1)NC(=O)[C@H](CC(N)=O)NC(=O)CN(CCc1ccc(OC)cc1)C(=O)[C@@H](N)CCCCN/C(=N/CC)NCC)c1ccccc1)[C@@H](C)CC)[C@@H](C)O)C(N)=O` [Peptide 18] (H-[hArg(Et2)][Gly(N-CH2CH2(4-MeOPh))]NHA[Phg]GILT[Aoc(2)]-NH2), for which the EC50 was < 0.1 nM in assay [1] and > 10 nM in assay [2].
